{"source": "patent US5489575A", "about": "“Polypeptides and their use” (Boman; Hans G., priority 1991, dated 1996)", "type_in_all_cases": "cell-based", "key": {"[1]": {"test_system": "Bacillus subtilis Bs11", "experiment": "Inhibition zone assay of PR-peptide on different bacteria", "conditions": "strain Bs11", "description": "(§1) The antibacterial activity of the polypeptide of this invention was determined by inhibition zone assay as described by Hultmark et al. (Hultmark, D., Engstrom, A., Anderson, K., Steiner, H., Bennich, H. and Boman, H. G. (1983). Insect immunity. Attacins, a family of antibacterial proteins from Hyalophora cecropia. EMBO J. 2, 571-576).\n(§2) Log-phase bacteria were grown to a density of 100 units on a Klett-summerson photoelectric colorimeter. They were diluted 50 times with LB medium and 50 μl of the bacteria suspension was mixed with 6 ml of 1.0% agarose in LB medium (w/v) and poured on the petri dishes (Falcon 1001 Optilux) with inner diameter 8.65 cm. For E. coli this procedure will give about 2×10^5 bacteria per plate.\n(§3) The plates were left for 1 hour at room temperature, and holes with 3 mm diameter were made on the solidified agarose. 100 μl of fractions were dried in a speedvac and dissolved in 10 μl H2 O, of which 3 μl was applied to the holes. After 30 min diffusion time the plates were incubated at 30° C. overnight. The diameter of the inhibition zones were measured and the relative unit activity was calculated from a standard curve which was constructed on varying amount of Cecropin A versus activity. One microgram of Cecropin A corresponds to 1000 units of activity.\n(§4) The maximum concentration of PR-peptide was 2,5 mM and 3 μl was applied to each well in thin agarose plates seeded with test bacterium. LV values are obtained from a dilution serie and is the lowest concentration giving killing (Muirmark, D., Engstrem, A., Anderson, K., Steiner, H., Bennich, H. and Boman, H. G. (1983))"}, "[2]": {"test_system": "Staphylococcus aureus Cowan 1", "experiment": "Inhibition zone assay of PR-peptide on different bacteria", "conditions": "strain Cowan 1", "description": "as §1, §2, §3, §4"}, "[3]": {"test_system": "Bacillus megaterium Bm11", "experiment": "Inhibition zone assay of PR-peptide on different bacteria", "conditions": "strain Bm11", "description": "as §1, §2, §3, §4"}, "[4]": {"test_system": "Proteus vulgaris Pv11", "experiment": "Inhibition zone assay of PR-peptide on different bacteria", "conditions": "strain Pv11", "description": "as §1, §2, §3, §4"}, "[5]": {"test_system": "Salmonella typhimurium L12", "experiment": "Inhibition zone assay of PR-peptide on different bacteria", "conditions": "strain L12", "description": "as §1, §2, §3, §4"}, "[6]": {"test_system": "Acinetobacter calcoaceticus Ac11", "experiment": "Inhibition zone assay of PR-peptide on different bacteria", "conditions": "strain Ac11", "description": "as §1, §2, §3, §4"}, "[7]": {"test_system": "Escherichia coli K12 D21", "experiment": "Inhibition zone assay of PR-peptide on different bacteria", "conditions": "strain D21", "description": "as §1, §2, §3, §4"}, "[8]": {"test_system": "Pseudomones aeruginose OT97", "experiment": "Inhibition zone assay of PR-peptide on different bacteria", "conditions": "strain OT97", "description": "as §1, §2, §3, §4"}, "[9]": {"test_system": "Escherichia coli Bd2221/75", "experiment": "Inhibition zone assay of PR-peptide on different bacteria", "conditions": "strain Bd2221/75", "description": "as §1, §2, §3, §4"}, "[10]": {"test_system": "Streptococcus pyrogenes", "experiment": "Inhibition zone assay of PR-peptide on different bacteria", "description": "as §1, §2, §3, §4"}, "[11]": {"test_system": "Bacillus megaterium", "experiment": "Inhibition zone assay repeated with Bacillus megaterium (Example 4)", "conditions": "times higher than in relation to E. coli", "description": "as §1, §2\nas §3, with “of activity. […]” for “of activity.”"}, "[12]": {"conditions": "lowest concentration giving killing, from dilution series"}, "[13]": {"conditions": "maximum concentration 2,5 mM, 3 μl per well, thin agarose plates"}}, "note": "No end group written: not given here."}
{"sequence": "RRRPRPPYLPRPRPPPFFPPRLPPRIPPGFPPRFPPRFP [PR-peptide, bactericidal polypeptide isolated from pig small intestine]", "values": [{"measurement": "LC value", "setting": "[1]; [12]", "value": 15, "unit": "µM"}, {"measurement": "Max zone", "setting": "[1]; [13]", "value": "10,3 mm"}, {"measurement": "LC value", "setting": "[2]; [12]", "value": 200, "unit": "µM"}, {"measurement": "Max zone", "setting": "[2]; [13]", "value": "3,7 mm"}, {"measurement": "LC value", "setting": "[3]; [12]", "value": "0,3 μM"}, {"measurement": "Max zone", "setting": "[3]; [13]", "value": "17,4 mm"}, {"measurement": "LC value", "setting": "[4]; [12]", "value": 300, "unit": "µM"}, {"measurement": "Max zone", "setting": "[4]; [13]", "value": "3,5 mm"}, {"measurement": "LC value", "setting": "[5]; [12]", "value": 1, "unit": "µM"}, {"measurement": "Max zone", "setting": "[5]; [13]", "value": "15,2 mm"}, {"measurement": "LC value", "setting": "[6]; [12]", "value": 3, "unit": "µM"}, {"measurement": "Max zone", "setting": "[6]; [13]", "value": "12,5 mm"}, {"measurement": "LC value", "setting": "[7]; [12]", "value": "0,3 μM"}, {"measurement": "Max zone", "setting": "[7]; [13]", "value": "18,3 mm"}, {"measurement": "LC value", "setting": "[8]; [12]", "value": 200, "unit": "µM"}, {"measurement": "Max zone", "setting": "[8]; [13]", "value": "4,5 mm"}, {"measurement": "LC value", "setting": "[9]; [12]", "value": "0,3 μM"}, {"measurement": "Max zone", "setting": "[9]; [13]", "value": "17,6 mm"}, {"measurement": "LC value", "setting": "[10]; [12]", "value": 2, "unit": "µM"}, {"measurement": "Max zone", "setting": "[10]; [13]", "value": "14,9 mm"}, {"measurement": "average activity against Bacillus megaterium relative to E. coli", "setting": "[11]", "value": "about 3 times"}]}
